Reference: US5344843A, “Cat-1 inhibitors, pharmaceutical compositions and methods of use” (Hoffman-La Roche Inc., priority 1992, dated 1994)
Like-named read-outs stand apart in the source and are kept apart here.

Molecular target: T1, CAT-1 (carnitine acyltransferase 1) (Rattus norvegicus, UniProt Q63704)
T1 construct: This preparation is used as the isolated mitochondrial preparation; from tissue; host or cells: rat heart (atria removed), isolated mitochondria
T1 sequence (Q63704 1-772): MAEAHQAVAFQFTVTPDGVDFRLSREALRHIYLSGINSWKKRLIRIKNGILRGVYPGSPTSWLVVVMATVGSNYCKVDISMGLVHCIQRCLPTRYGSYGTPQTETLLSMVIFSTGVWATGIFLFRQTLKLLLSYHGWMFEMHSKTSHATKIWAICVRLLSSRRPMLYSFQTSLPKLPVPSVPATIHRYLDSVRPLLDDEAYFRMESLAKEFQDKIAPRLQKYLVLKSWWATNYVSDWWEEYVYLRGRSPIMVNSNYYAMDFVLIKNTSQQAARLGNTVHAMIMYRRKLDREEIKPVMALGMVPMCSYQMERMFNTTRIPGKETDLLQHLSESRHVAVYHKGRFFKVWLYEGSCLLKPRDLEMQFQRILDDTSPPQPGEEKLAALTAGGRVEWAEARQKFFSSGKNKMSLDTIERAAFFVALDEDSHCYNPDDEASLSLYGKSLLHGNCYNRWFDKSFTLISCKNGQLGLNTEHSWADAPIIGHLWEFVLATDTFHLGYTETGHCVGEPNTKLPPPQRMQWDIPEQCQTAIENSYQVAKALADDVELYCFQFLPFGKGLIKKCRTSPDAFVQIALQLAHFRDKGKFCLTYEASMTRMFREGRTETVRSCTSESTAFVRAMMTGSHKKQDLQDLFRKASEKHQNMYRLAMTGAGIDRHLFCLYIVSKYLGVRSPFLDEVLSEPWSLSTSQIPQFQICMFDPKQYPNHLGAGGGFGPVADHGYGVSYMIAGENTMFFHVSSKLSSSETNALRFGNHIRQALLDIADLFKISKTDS
Experiment: Primary Screen--Inhibition of CAT-1 in isolated mitochondria
Type: biochemical
Parameters: inhibition: dose or concentration left out as unconfirmed

[1] = rat heart mitochondria, reduction of palmitoyl carnitine formation by 50%, read-out: Primary Screen IC50

Protocol: Primary Screen--Inhibitors of CAT-1 in 1Mitochondria
(a). Preparation of Mitochondria
The heart is rapidly removed from an anesthetized rat (sodium pentabarbitol) and placed in ice-cold homogenization buffer (sucrose, 250 mM; Tris, 10 mM; EDTA, 1 mM; BSA, 0.01%; pH=7.4). The atria and extraneous tissue are removed and the remainder is chopped with scissors. The pieces are rinsed in homogenization buffer before being homogenized in 10 mL of the same buffer for 5-7 seconds. The homogenate is then diluted with homogenization buffer (40 total volume) and centrifuged at 200 g for 20 minutes. The supernatant is withdrawn and centrifuged at 7000 g for 20 minutes and the resulting pellet is isolated, resuspended in 40 mL of homogenization buffer and centrifuged once more at 7000 g for 20 minutes. The isolated pellet is resuspended in 10 mL of homogenization buffer and stored at 4° C. until use. This preparation is used as the isolated mitochondrial preparation.
(b). Inhibition of CAT-1 assay
Isolated mitochondria (20 μL) are incubated with 60 μL of Tris/sucrose buffer (sucrose, 500 mM; Tris, 20 mM; KCl, 100 mM; EDTA, 2 mM; pH=7.0 plus 83 μM palmitoyl CoA, and BSA, 0.8 mg/mL and 10^-4 to 10^-10 M of the drug to be tested. After 10 minutes at 30° C., the reaction is started by addition of 10 μL of ^3 H-carnitine (final concentration=250 μM). After 5 minutes, the reaction is terminated by the addition of ice cold 70% perchloric acid (PCA). The precipitated solids so formed, containing the insoluble product of the enzyme palmitoyl carnitine, are captured on filter paper. The filter paper is washed with 7% PCA, then dried and placed in scintillation vials with 10 mL of scintillant (Aquasol, New England Nuclear) and counted for radioactivity. The rate of the reaction is assessed by the difference in radioactivity between zero time and five minutes in the absence of test compound. The ability of test compounds at selected concentrations to inhibit CAT-1 is determined by their ability to reduce the formation of the radioactive product. The IC50 of the test compound is the concentration of test compound that reduces the formation of radioactive product by 50%.

SMILES	IC50 [1] [nM]	other results
O=C(O)C(=O)c1ccc(OCCCn2c(=O)ccc3ccccc32)cc1 [Example 264, 4-[3-(1,2-dihydro-2-oxo-1-quinolinyl)propoxy]-alpha-oxobenzeneacetic acid]	12000	–
Cc1ccc(OCCOc2ccc(C(=O)C(=O)O)cc2)cc1 [Example 49, 4-[[2-(4-methylphenoxy)ethyl]oxy]-alpha-oxobenzeneacetic acid]	4000	–
O=C(O)C(=O)c1ccc(OCCOc2ccc(C(=O)C(=O)O)cc2)cc1 [Example 55]	6000	–
O=C(O)C(=O)c1ccc(OCCCCCCOc2ccccc2)cc1 [Example 75, alpha-oxo-4-[[(6-phenoxy)hexyl]oxy]benzeneacetic acid]	10000	–
O=C(O)C(=O)c1ccc(OCC(O)COc2ccccc2)cc1 (racemic) [Example 80, rac.-4-[[(2-hydroxy-3-phenoxy)propyl]oxy]-alpha-oxobenzeneacetic acid]	8000	–
O=C(O)C(=O)c1ccc(OCCOc2ccc(Oc3ccccc3)cc2)cc1 [Example 59, alpha-oxo-4-[[2-(4-phenoxyphenoxy)ethyl]oxy]benzeneacetic acid]	10000	–
O=C(O)C(=O)c1cc(Cl)c(OCCOc2ccc3ccccc3c2)c(Cl)c1 [Example 189, 3,5-dichloro-4-[2-(2-naphthalenyloxy)ethoxy]-alpha-oxobenzeneacetic acid (6:1) molar benzene solvate]	–	inhibition: 28%
COc1cc(OCCOc2ccc3ccccc3c2)cc(OC)c1C(=O)C(=O)O [Example 195, 2,6-dimethoxy-4-[2-(2-naphthalenyloxy)ethoxy]-alpha-oxobenzeneacetic acid]	–	inhibition: 24%
O=C(O)C(=O)c1ccc(OCc2ccccc2)cc1 [Example 19, 4-[(phenylmethyl)oxy]-alpha-oxobenzeneacetic acid]	90000	–
O=C(O)C(=O)c1ccc(OCCc2ccccc2)cc1 [Example 21, 4-[(2-phenylethyl)oxy]-alpha-oxobenzeneacetic acid]	12000	–
COCCOc1ccc(C(=O)C(=O)O)cc1 [Example 97, 4-[[2-(methoxy)ethyl]oxy]-alphaoxobenzeneacetic acid]	30000	–
O=C(O)C(=O)c1ccc(OCC(=O)N2CCN(c3ccccc3)CC2)cc1 [Example 249, 4-[2-oxo-2-(4-phenyl-1-piperazinyl)ethoxy]-alpha-oxobenzeneacetic acid]	10000	–
O=C(O)C(=O)c1ccc(OCCCCCOc2ccccc2)cc1 [Example 73, alpha-oxo-4-[[(5-phenoxy)pentyl]oxy]benzeneacetic acid]	5000	–
Cc1nnc2n1-c1sc(CCCOc3ccc(C(=O)C(=O)O)cc3)cc1C(c1ccccc1Cl)=NC2 [Example 296]	–	IC50: 10000 nM
COC(=O)C(=O)c1ccc(OCCOc2ccc3cc(OC(C)=O)ccc3c2)cc1 [Example 138, 4-[[2-[6-(Acetyloxy)-2-naphthalenyloxy]ethyl]oxy]-alpha-oxobenzeneacetic acid methyl ester]	8900	–
COc1ccc(OCCOc2ccc(C(=O)C(=O)O)cc2)cc1OC [Example 63, 4-[[2-(3,4-dimethoxyphenoxy)ethyl]oxy]-alpha-oxobenzeneacetic acid]	3000	–
O=C(O)C(=O)c1ccc(OCc2ccc3ccccc3n2)cc1 [Example 159, 4-[(2-quinolinyl)methoxy]-alpha-oxo-benzeneacetic acid]	5100	–
O=C(O)C(=O)c1ccc(CCCNC(=O)c2ccc3ccccc3c2)cc1 [Example 147, 4-[3-[[(2-naphthalenyl)carbonyl]amino]propyl]-alpha-oxobenzeneacetic acid]	6200	–

More lines, main results first:

IC50 [1] [nM]	SMILES	other results
2000	O=C(O)C(=O)c1ccc(OCCCOc2ccccc2)cc1 [Example 69, alpha-oxo-4-[[(3-phenoxy)propyl]oxy]benzeneacetic acid]	–
930	O=C(COc1ccc2ccccc2c1)Nc1ccc(C(=O)C(=O)O)cc1 [Example 153, 4-[[2-(2-naphthalenyloxy)acetyl]amino]-alpha-oxobenzeneacetic acid]	–
570	CC(C)(C)c1cc(SCCCOc2ccc(C(=O)C(=O)O)cc2)cc(C(C)(C)C)c1O [Example 275, 4-[3-[[3,5-bis(1,1-dimethylethyl)-4-hydroxyphenyl]thio]propoxy]-alpha-oxobenzeneacetic acid]	–
600	O=C(O)C(=O)c1ccc(OCCOc2ccccc2F)cc1 [Example 39, 4-[[2-(2-fluorophenoxy)ethyl]oxy]-alpha-oxobenzeneacetic acid]	–
1800	CCCc1c(OCCCOc2ccc(C(=O)C(=O)O)cc2)ccc(C(=O)O)c1O [Example 269, 4-[3-[4-carboxy-3-hydroxy-2-propylphenoxy)propoxy]-alpha-oxobenzeneacetic acid]	–
300	O=C(O)C(=O)c1ccc(OCCOc2ccc(Cl)cc2)cc1 [Example 45, 4-[[2-(4-chlorophenoxy)ethyl]oxy]-alpha-oxobenzeneacetic acid]	–
3000	O=C(O)C(=O)c1ccc(OCCCc2ccc(F)cc2)cc1 [Example 27, 4-[[3-(4-fluorophenyl)propyl]oxy]-alpha-oxobenzeneacetic acid]	–
270	C=CCO/N=C(\C(=O)O)c1ccc(OCCOc2ccc3ccccc3c2)s1 [Example 313, (E)-5-[2-(2-naphthalenyloxy)ethoxy]-alpha-[(2-propenyloxy)imino]-2-thiopheneacetic acid]	–
1000	O=C(O)C(=O)c1ccc(OC/C=C\c2ccccc2)cc1 [Example 33, (Z)-alpha-oxo-4-[(3-phenyl-2-propenyl)oxy]benzeneacetic acid]	–
100	C=CCO/N=C(/C(=O)O)c1ccc(OCCOc2ccc3ccccc3c2)s1 [Example 312, (Z)-5-[2-(2-naphthalenyloxy)ethoxy]-alpha-[(2-propenyloxy)imino]-2-thiopheneacetic acid]	–
300	O=C(O)C(=O)c1ccc(OCCOc2cc3ccccc3cc2O)cc1 [Example 121, 4-[[2-(3-hydroxy-2-naphthalenyloxy)ethyl]oxy]-alpha-oxobenzeneacetic acid]	–
150	O=C(O)C(=O)c1ccc(OCCCNC(=O)c2ccc3ccccc3c2)cc1 [Example 140, 4-[[3-(2-naphthoylamino)propyl]oxy]-alpha-oxobenzeneacetic acid]	–
3000	O=C(O)C(=O)c1ccc(OCCOc2ccc([N+](=O)[O-])cc2)cc1 [Example 47, 4-[[2-(4-nitrophenoxy)ethyl]oxy]-alpha-oxobenzeneacetic acid]	–
260	O=C(O)C(=O)c1ccc(OCCOc2ccc3cccnc3c2)cc1 [Example 127, alpha-oxo-4-[[2-(7-quinolyloxy)ethyl]oxy]benzeneacetic acid monohydrate]	–
730	CC(=O)c1ccc(OCCCOc2ccc(C(=O)C(=O)O)cc2)cc1O [Example 273, 4-[3-(4-acetyl-3-hydroxyphenoxy)propoxy]-alpha-oxobenzeneacetic acid]	–
700	O=C(O)C(=O)c1ccc(OCc2cc3ccccc3o2)cc1 [Example 141, 4-[[2-benzofuranyl)methoxy]-alpha-oxobenzeneacetic acid]	–
20	CCO/N=C(/C(=O)O)c1ccc(OCCOc2ccc3ccccc3c2)s1 [Example 309, (Z)-alpha-(ethoxyimino)-5-[2-(2-naphthalenyloxy)ethoxy]-2-thiopheneacetic acid]	–
700	O=C(O)C(=O)c1ccc(NCCOc2ccc3ccccc3c2)cc1 [Example 168, 4-[[2-(2-naphthalenyloxy)ethyl]amino]-alpha-oxobenzeneaceticacid]	–
650	O=C(O)C(=O)c1ccc(OCCOc2cc3ccccc3cc2OCCOc2ccccc2)cc1 [Example 116, alpha-oxo-4-[[2-[3-(2-phenoxyethoxy)-2-naphthalenyloxy]ethyl]oxy]benzeneacetic acid]	–
100	O=C(O)C(=O)c1ccc(OC/C=C/c2ccccc2)cc1 [Example 31, (E)-alpha-oxo-4-[(3-phenyl-2-propenyl)oxy]benzeneacetic acid]	–
1000	O=C(O)C(=O)c1ccc(OCC(=O)C2CCCCCCC2)cc1 [Example 290, 4-[2-(cyclooctyl)-2-oxoethoxy]-alpha-oxobenzeneacetic acid]	–
200	O=C(O)C(=O)c1ccc(OCCOc2ccc3c(c2)CCCC3)cc1 [Example 112, alpha-oxo-4-[[2-(5,6,7,8-tetrahydro-2-naphthalenyloxy)ethyl]oxy]benzeneacetic acid]	–
240	CCO/N=C(\C(=O)O)c1ccc(OCCOc2ccc3ccccc3c2)s1 [Example 310, (E)-alpha-(ethoxyimino)-5-[2-(2-naphthalenyloxy)ethoxy]-2-thiopheneacetic acid]	–
800	O=C(O)C(=O)c1ccc(OCCOc2ccc(C(F)(F)F)cc2)cc1 [Example 51, alpha-oxo-4-[[2-(4-trifluoromethylphenoxy)ethyl]oxy]benzeneacetic acid]	–
